Assay results: ChEMBL document CHEMBL1157539, “Thousands of chemical starting points for antimalarial lead identification” (Nature, 2010)

Tested on: Plasmodium falciparum
Assay: GSK_TCMDC: Inhibition of Plasmodium falciparum 3D7 in whole erythrocytes, using parasite LDH activity as an index of growth.
Format: functional, organism-based
Conditions: Plasmodium falciparum, 3D7

| SMILES | XC50 |
| --- | --- |
| Cc1ccc2nc(C)cc(N/N=C/c3ccccc3[N+](=O)[O-])c2c1 | 166 nM |
| Cc1[nH]c(C)c(-c2ccc(Oc3ccc(C(F)(F)F)cc3)cc2)c(=O)c1Br | 206 nM |
| Cc1n[nH]c(C)c1C1CCN(CC2CCC(NC(=O)/C=C/c3ccc(Cl)c(Cl)c3)CC2)CC1 (stereo not drawn) | 729 nM |
| COc1cc2c(cc1S(=O)(=O)c1ccc(OCc3ccc(Cl)cc3)cc1)CCN(Cc1ccc(NC(C)=O)s1)CC2 | 919 nM |
| Cc1cccc2nc(-c3ccc(-c4ccc(NC(=O)Nc5ccc(F)c(F)c5F)cc4)s3)[nH]c12 | 176 nM |
| CCC(CO)NCC(O)Cn1c2ccc(Cl)cc2c2cc(Cl)ccc21 (stereo not drawn) | 768 nM |
| O=C(Nc1cccc(Cl)c1Cl)Nc1ccnc2ccccc12 | 745 nM |
| COCCNC(=O)C1CCN(C(c2ccc(Cl)cc2)c2ccc(Cl)cc2)CC1 | 553 nM |
| COc1ccc(S(=O)(=O)Nc2ccc(C(=O)NCc3ccccc3C(F)(F)F)cc2)cc1N1CCN(CC2CC2)CC1 | 1150 nM |
| CC1(C)NC(N)=NC(=N)N1OCOc1cc(Cl)c(Cl)cc1Cl | 3.2 nM |
| CCCCNC(=O)[C@@H]1CCCN1C(=O)c1ccc(O)c(-c2ccc(Cl)c(Cl)c2)c1 | 751 nM |
| COc1ccc(CC(C)NCC(O)c2cccc(Cl)c2)cc1C (stereo not drawn) | 902 nM |
| Cc1[nH]c(C)c(-c2ccc(-c3ccc(OC(F)(F)F)cc3)nc2)c(=O)c1Cl | 201 nM |
| COc1cc(Cc2cnc(N)nc2N)ccc1OCc1ccc(F)c(F)c1 | 910 nM |
| CC1(C)NC(N)=NC(=N)N1OCCc1ccccc1 | 3.2 nM |
| CCCC[C@@H](C(=O)NCc1ccccc1C(F)(F)F)N1C(=O)CCC1C(=O)Nc1ccc([N+](=O)[O-])cc1 (stereo partly drawn) | 848 nM |
| O=S(=O)(c1c(Cl)cc(Cl)cc1Cl)N1CCCCC(c2ccc(Cl)cc2)=N1 | 402 nM |
| CN(C)CCCOc1ccc(-c2nc(-c3ccc4c(c3)CCC4=NO)c(-c3ccncc3)[nH]2)cc1 | 832 nM |
| O=C(O[C@@H]1CN[C@H](C#Cc2cc3c(Nc4ccc5c(cnn5Cc5ccccc5)c4)ncnc3s2)C1)N1CCCC1 | 424 nM |
| O=C(Nc1ccc(Cl)c(Cl)c1)N1CCC(CNCc2cccc([N+](=O)[O-])c2)CC1 | 979 nM |
| C[C@@H](Nc1nc(NCc2ccccc2)c2sccc2n1)c1ccccc1 | 919 nM |
| CCC(C)CN1CCCN(c2ccc(NC(=O)c3cccs3)cc2)CC1 (stereo not drawn) | 802 nM |
| O=C(/C=C/c1ccc(Cl)c(Cl)c1)NCCCCCN1CCN(C(=O)Nc2ccc(C(F)(F)F)cc2)CC1 | 721 nM |
| N#Cc1cccc(NC(=O)NC2CCN(CCCCCNC(=O)C3CC3c3ccc(Cl)c(Cl)c3)CC2)c1 (stereo not drawn) | 785 nM |
| NS(=O)(=O)Cc1cccc(-c2ccnc3ccc(-c4cccc(S(N)(=O)=O)c4)cc23)c1 | 1560 nM |

| SMILES | XC50 |
| --- | --- |
| NC1=NC(c2ccccc2)(c2ccccc2)C(=O)N1CC1CCC1 | 753 nM |
| COc1cc(CN2CCC(NC(=O)[C@H](Cc3ccccc3)NC(=O)Nc3ccc(Oc4ccccc4)cc3)C2)ccc1O (stereo partly drawn) | 810 nM |
| COc1cc(C(=O)N2CCN(C(C)C)CC2)ccc1CN(C)CCCN1CCN(c2cccc(Cl)c2Cl)CC1 | 776 nM |
| COc1ccc(C)cc1NC(=O)CSc1nc2cccnc2n1C1CCCCC1 | 544 nM |
| CCCCCCCc1cc(O)c2c3c(c(=O)oc2c1)CN(C)CC3 | 144 nM |
| N[C@@H](Cc1ccc(O)cc1)C(=O)NC(c1ccccc1)c1c(O)ccc2ccccc12 (stereo partly drawn) | 694 nM |
| CCn1c2ccccc2c2cc(Cc3cnc(N)nc3N)ccc21 | 221 nM |
| COc1ccc(S(=O)(=O)NC2CCN(c3ccnc4cc(Cl)ccc34)C2)cc1 (stereo not drawn) | 493 nM |
| CC(C)c1cccc(C(C)C)c1NC(=O)NNC(=O)c1ccc(CCN2CCC(c3nc(COCC(F)(F)F)c(-c4ccc(F)cc4)o3)CC2)cc1 | 1090 nM |
| CCC1CCCCN1S(=O)(=O)c1ccc(NC(=O)c2cc(C)on2)cc1 (stereo not drawn) | 1240 nM |
| CC1=C(C(=O)Nc2cc3cn[nH]c3cc2F)C(c2cccc(NS(C)(=O)=O)c2)CC(=O)N1 (stereo not drawn) | 434 nM |
| CC[C@H]1CN2CC[C@H]1C[C@H]2[C@H](O)c1cc(-c2cccc(Cl)c2)nc2ccc(OC)cc12 | 168 nM |
| CCOC(=O)C1=C(C)NC(Cn2ccnc2)=C(C(=O)OCC)C1c1ccc(C(C)(C)C)cc1 (stereo not drawn) | 807 nM |
| O=C(Nc1ccc(C(=O)N2CCN(CCN3CCN(c4cccc(C(F)(F)F)c4)CC3)CC2)cc1)c1cc(Cl)cc(Cl)c1 | 827 nM |
| CC(C)Nc1cc(C(=O)N[C@@H](Cc2ccccc2)[C@H](O)CNCc2cccc(C(F)(F)F)c2)c(F)c(N2CCCCS2(=O)=O)c1 | 794 nM |
| OC(CNc1ccnc(Nc2cccc(OCCCN3CCOCC3)c2)n1)c1ccccc1 (stereo not drawn) | 924 nM |
| CCCCNCc1ccc(-c2nc(CN(CCCn3ccnc3)C(=O)C3COc4ccccc4O3)cs2)cc1 (stereo not drawn) | 892 nM |
| COc1cc(C(=O)NC2CCN(Cc3ccccc3)CC2)ccc1-c1nc2c(Cl)cc(C(F)(F)F)cc2[nH]1 | 670 nM |
| O=c1nc(NCCCCCN2CCC(c3c[nH]c4ccccc34)CC2)[nH]cc1Cc1ccc(Cl)c(Cl)c1 | 969 nM |
| COc1ccc(-c2cccc(NC(=O)c3cccc(C#N)c3)c2)cc1CN1CCNCC1 | 728 nM |
| CC(=O)N1N=C(c2ccccc2)Sc2c1nc(-c1ccc(Cl)cc1)n2C(C)=O | 986 nM |
| Cc1cc(O)c2c(c1)OC(C)(C)C=C2C1=CCN(Cc2ccccc2)CC1 | 791 nM |
| OC(CN1CCN(c2cccc(Cl)c2)CC1)C(c1ccccc1)c1ccccc1 (stereo not drawn) | 1150 nM |
| COc1ccc(N(C)Cc2cnc3nc(N)nc(N)c3n2)cc1 | 284 nM |
| c1ccc2[nH]c(-c3ccc(-c4ccc(CN5CCCCC5)cc4)s3)nc2c1 | 742 nM |

| SMILES | XC50 |
| --- | --- |
| O=C(C1CCN(c2nnnn2-c2ccccc2)CC1)N1CCc2ccccc2C1 | 712 nM |
| O=C(Nc1ccc(N2CCNCC2)cc1)c1ccn2ncc(-c3cccc(Cl)c3)c2n1 | 922 nM |
| Cn1cnc2c(Nc3ccncc3)nc(-c3ccc4ccccc4c3)nc21 | 867 nM |
| O=C(Nc1cccc(CN2CCN(C(=O)c3cccc(Cl)c3)CC2)c1)c1ccco1 | 438 nM |
| O=C(Cc1n[nH]c(=O)c2ccccc12)Nc1cccc(C(=O)Nc2cccc(C(F)(F)F)c2)c1 | 169 nM |
| COc1cc2c(cc1C(F)(F)F)N(C(=O)Nc1cc(-c3ccncc3)cc(-c3cccnc3)c1)CC2 | 619 nM |
| CS(=O)(=O)NCCCNCc1cccc(-c2ccc(-c3nc4ccccc4[nH]3)s2)c1 | 1080 nM |
| Cc1cc(NC(=O)Nc2ccc(Oc3ccccc3)cc2)c2ccccc2n1 | 840 nM |
| FC(F)(F)c1cccc(CNCC2CCN(Cc3ccc4c(c3)OCO4)CC2)c1 | 725 nM |
| O=C(NCCN1CCOCC1)c1csc(C2CCCN(C(=O)c3ccc(O)c(-c4cc(Cl)cc(Cl)c4)c3)C2)n1 (stereo not drawn) | 1030 nM |
| Cc1ccc(/C=C/C(=O)NCCCCCN2CCN(C(=O)Nc3ccc(Cl)c(C(F)(F)F)c3)CC2)cc1 | 1110 nM |
| CNC(=N)c1ccc(NC(=O)Nc2ccc(C(=N)NC)cc2)cc1 | 577 nM |
| O=C(NCc1ccc(Cl)c(Cl)c1)c1ccc(-c2nc3ccc(F)cc3[nH]2)cc1 | 1030 nM |
| COc1ccc2nccc([C@@H](O)CN3CCC(NCc4cc5cc([N+](=O)[O-])ccc5[nH]4)CC3)c2c1 | 117 nM |
| COc1ccc(NC(=O)[C@H](Cc2ccccc2)Nc2nc(NCCN3CCCC3)ncc2C)cc1 | 988 nM |
| O=C(NC1CCCC1)c1cc2c(=O)n3ccccc3nc2[nH]/c1=N/CCc1ccccc1 | 649 nM |
| CC(C)CN1C(=O)C(c2ccc(F)c(F)c2)=C(O)C1c1ccccc1 (stereo not drawn) | 185 nM |
| Cc1cccc2nc(-c3cccc(-c4ccc(NC(=O)c5cnccc5C(F)(F)F)cc4)c3)[nH]c12 | 695 nM |
| CC(=O)OCCN1C(=O)c2ccc3c4c(ccc(c24)C1=O)C(=O)N(CCOC(C)=O)C3=O | 238 nM |
| COc1ccc(Nc2nccc(N3CCC(NC(=O)C(C)c4ccc(Cl)cc4)CC3)n2)cc1 (stereo not drawn) | 934 nM |
| COc1ccc(-c2nc(NC(=O)Cc3coc4cc(OC)ccc34)sc2C)cc1 | 609 nM |
| CC(C)CNc1c2c(nc3cnn(-c4c5c(nc6cn[nH]c46)CCCC5)c13)CCCC2 | 795 nM |
| CN(C)C(=O)CC(=O)NCc1cccc(Cl)c1 | 711 nM |
| CCOC(=O)c1cnc2cc(N3CCCC3)c(Cl)cc2c1OCC | 108 nM |
| O=C(Nc1cccc(C(F)(F)F)c1)N1CCOC(CCN2CCC3(CCc4ccccc43)CC2)(c2ccc(Cl)c(Cl)c2)C1 (stereo not drawn) | 736 nM |

| SMILES | XC50 |
| --- | --- |
| COc1cc(OC)c2c(C)cc(NCCCN3CCOCC3)nc2c1 | 1070 nM |
| COc1cc(Nc2ccnc3cc(-c4nccs4)ccc23)ccc1OCCCc1nc2ccccc2[nH]1 | 237 nM |
| Cc1[nH]c2c(NCc3ccc(F)cc3)nccc2c1C | 1360 nM |
| Cc1cccc(N2C(N)=NC(N)=NC2(C)C)c1C | 759 nM |
| CCCc1c(Cl)cc(CNCCCNc2nc3ccncc3[nH]2)cc1Cl | 744 nM |
| COC(=O)C(=O)c1c(-c2ccccc2)c(-c2ccc(OC)c(OC)c2)c2c3cc(OC)c(OC)cc3ccn12 | 636 nM |
| O=C(CC1CCCC1)Nc1ccc2c(c1)CCC2 | 868 nM |
| CC(C)C(=O)Nc1c(F)cc(F)cc1CCc1ccc(O)cc1 | 504 nM |
| CCc1c(CCNCCCCCCNCc2ccc3c(c2CC)OCO3)ccc(OC)c1OC | 246 nM |
| COc1ccc(NC(=O)Nc2cc(C)nc3cccnc23)cc1Cn1ccnc1 | 736 nM |
| O=C(/C=C/c1ccc(Cl)c(Cl)c1)NCCCCCN1CCN(C(=O)Nc2ccc(OC(F)F)cc2)CC1 | 945 nM |
| CC12CCC(C(=O)N(CC(O)Cn3c4ccc(Cl)cc4c4cc(Cl)ccc43)C1=O)C2(C)C (stereo not drawn) | 844 nM |
| Cc1ccc(Oc2ncccc2C(=O)Nc2cccc3cccnc23)c(C)c1 | 225 nM |
| COc1ccccc1CNC(=O)c1cc(OC)c(OC)cc1NC(=O)c1cccs1 | 1440 nM |
| O=C(NC1CCN(CCC[C@]2(c3ccc(Cl)c(Cl)c3)CCCN(C(=O)c3ccccc3)C2)CC1)c1ccc(F)cc1 | 883 nM |
| Cc1cc(NC(=O)Nc2ccc(C(C)(C)C)cc2)c2ccccc2n1 | 719 nM |
| Cc1cccc(NC(c2cccs2)c2c(NC(=O)c3ccccc3)sc(C)c2C)n1 (stereo not drawn) | 832 nM |
| O=C(c1cc(-c2cccs2)n[nH]1)N1CCN(S(=O)(=O)c2ccc(Cl)s2)CC1 | 868 nM |
| CN(Cc1cccc(F)c1)C1CCCN(c2cc(NC(=O)c3ccccc3)ccn2)C1 (stereo not drawn) | 919 nM |
| CC(CN1CCN(C)CC1)C(=O)Nc1cccc(-c2ccc(-c3nc4cc(F)ccc4[nH]3)cc2)c1 (stereo not drawn) | 807 nM |
| Cc1cccc2nc(-c3cccc(-c4ccc(NC(=O)CS(C)(=O)=O)cc4)c3)[nH]c12 | 1000 nM |
| CC1(C)CC2CC(C)(CN2C(=O)c2cc(C(C)(C)C)nn2Cc2ccccc2)C1 (stereo not drawn) | 1090 nM |
| O=C1Nc2cccc3c2C1(CCCN1CCC(c2c[nH]c4cc(C(F)(F)F)ccc24)CC1)CCC3 (stereo not drawn) | 961 nM |
